Measured values as given in paper PMC5117131 (ACS chemical biology, 2016).
Entries after “also recorded” stand apart in the source; their conditions may differ. Where no end group is shown, it is not given here. TMR = tetramethylrhodamine dye

T1: TMR-E2F2^TD peptide (human)
T1 chain: {TMR}-QDDYLWGLEAGEGISDLFD

B1: phosphorylated Rb^NP (residues 55-787, Δ245-267, Δ582-642, phosphorylated by Cdk2-CycA) (domain or fragment, UniProt P06400 55-787, looked up)
chain: PDFTALCQKLKIPDHVRERAWLTWEKVSSVDGVLGGYIQKKKELWGICIFIAAVDLDEMSFTFTELQKNIEISVHKFFNLLKEIDTSTKVDNAMSRLLKKYDVLFALFSKLERTCELIYLTQPSSSISTEINSALVLKVSWITFLLAKGEVLQMEDDLVISFQLMLCVLDYFIKLSPPMLLKEPYKTAVIENDTRIIEVLCKEHECNIDEVKNVYFKNFIPFMNSLGLVTSNGLPEVENLSKRYEEIYLKNKDLDARLFLDHDKTLQTDSIDSFETQRTPRKSNLDEEVNVIPPHTPVRTVMNTIQQLMMILNSASDQPSENLISYFNNCTVNPKESILKRVKDIGYIFKEKFAKAVGQGCVEIGSQRYKLGVRLYYRVMESMLKSEEERLSIQNFSKLLNDNIFHMSLLACALEVVMATYSRSTSQNLDSGTDLSFPWILNVLNLKAFDFYKVIESFIKAEGNLTREMIKHLERCEHRIMESLAWLSDSPLFDLIKQSKDREGKSTSLSLFYKKVYRLAYLRLNTLCERLLSEHPELEHIIWTLFQHTLQNEYELMRDRHLDQIMMCSMYGICKVKNIDLKFKIIVTAYKDLPHAVQETFKRVLIKEEEYDSIIVFYNSVFMQRLKTNILQYASTRPPTLSPIPHIPR
modifications: quantitative phosphorylation on two sites (the construct contains the two sites T356 and T373)
B2: unphosphorylated Rb^NP (Rb N-terminal domain and pocket domain, residues 55-787, Δ245-267, Δ582-642) (domain or fragment, UniProt P06400 55-787, looked up)
chain: PDFTALCQKLKIPDHVRERAWLTWEKVSSVDGVLGGYIQKKKELWGICIFIAAVDLDEMSFTFTELQKNIEISVHKFFNLLKEIDTSTKVDNAMSRLLKKYDVLFALFSKLERTCELIYLTQPSSSISTEINSALVLKVSWITFLLAKGEVLQMEDDLVISFQLMLCVLDYFIKLSPPMLLKEPYKTAVIENDTRIIEVLCKEHECNIDEVKNVYFKNFIPFMNSLGLVTSNGLPEVENLSKRYEEIYLKNKDLDARLFLDHDKTLQTDSIDSFETQRTPRKSNLDEEVNVIPPHTPVRTVMNTIQQLMMILNSASDQPSENLISYFNNCTVNPKESILKRVKDIGYIFKEKFAKAVGQGCVEIGSQRYKLGVRLYYRVMESMLKSEEERLSIQNFSKLLNDNIFHMSLLACALEVVMATYSRSTSQNLDSGTDLSFPWILNVLNLKAFDFYKVIESFIKAEGNLTREMIKHLERCEHRIMESLAWLSDSPLFDLIKQSKDREGKSTSLSLFYKKVYRLAYLRLNTLCERLLSEHPELEHIIWTLFQHTLQNEYELMRDRHLDQIMMCSMYGICKVKNIDLKFKIIVTAYKDLPHAVQETFKRVLIKEEEYDSIIVFYNSVFMQRLKTNILQYASTRPPTLSPIPHIPR
B3: E7 protein: full length HPV E7 protein (protein)
chain: MHGDTPTLHEYMLDLQPETTDLYCYEQLNDSSEEEDEIDGPAGQAEPDRAHYNIVTFCCKCDSTLRLCVQSTHVDIRTLEDLLMGTLGIVCPICSQKP

Tests used:
[1] = target: phosphorylated Rb^NP–E2F^TMR (Homo sapiens, UniProt P06400, DEL245-267/DEL582-642); experiment: FP EC50 measurement of Rb activation; format: biochemical; conditions: 20 nM phosphorylated Rb^NP, 10 nM E2F^TMR, Figure 3b
Rb = conditions: LxCxE-like peptides; cited from earlier work
[2] = target: E2F2 transactivation domain peptide (E2FTMR) 409-428 (UniProt Q14209); experiment: fluorescence polarization, single concentration, 384-well; conditions: reference: unphosphorylated RbNP; sites T356,T373
TMR-E2F2^TD peptide = target: T1, TMR-E2F2^TD peptide; experiment: fluorescence polarisation
[3] = tested on: Rb Q736A/K740A docking interface mutant; experiment: E2F^TD binding to Rb with mutated docking interface; format: biochemical; conditions: Supporting Information Figure 3

Molecule | effect in the Rb activation assay (in words) [1] | affinity for Rb (in words) (Rb) | FP ratio (TMR-E2F2^TD peptide) [FP ratio] | also measured
MEHQLLCCEVETIRRAY [cyclin D] | do not show activity; also recorded: no effect | weak affinity | – | –
TDLEASLLSFEKLDRAphosSPDLWPE [LIN52] | do not show activity; also recorded: no effect | weak affinity | – | –
Rb (retinoblastoma protein; RbNP construct) 55-787 (from UniProt P06400) Cdk2–CycA phosphorylated RbNP | – | – | – | other: FP ratio [2]: weaker; reference ~165
B1 | – | – | ~60 | –
B2 | – | – | ~165 | –
B3 | – | – | – | effect on E2F^TD binding to Rb with mutated docking interface [3]: do not affect E2F^TD binding to Rb
